Data taken from ChEMBL document CHEMBL4130599, “VU6010608, a Novel mGlu7 NAM from a Series of N-(2-(1H-1,2,4-Triazol-1-yl)-5-(trifluoromethoxy)phenyl)benzamides” (ACS Med Chem Lett, 2017).
The source made the active and inactive calls. The calls are words filed in the database; no cut-off is given here.

Assays:
[1] = Brain to plasma partition coefficient, Kp of the compound in cannulated Sprague-Dawley rat at 0.2 to 0.25 mg/kg, iv administered as cassette dose measured after 0.25 hrs by LC-MS/MS analysis; format: ADME, organism-based; settings: brain and plasma
[2] = Unbound brain to plasma concentration ratio in cannulated Sprague-Dawley rat at 0.2 to 0.25 mg/kg, iv administered as cassette dose measured after 0.25 hrs by LC-MS/MS analysis; format: ADME, organism-based; settings: brain and plasma, read-out: K(p,uu,brain)
[3] = Protein binding in rat plasma assessed as unbound fraction measured after 4 hrs by LC-MS/MS based equilibrium dialysis method; format: ADME, cell-free
[4] = Protein binding in mouse plasma assessed as unbound fraction measured after 4 hrs by LC-MS/MS based equilibrium dialysis method; format: ADME, cell-free
[5] = Protein binding in rat brain assessed as unbound fraction measured after 6 hrs by LC-MS/MS based equilibrium dialysis method; format: ADME, tissue-based
Brain = assay: Blockade of high-frequency stimulation-induced long-term potentiation at SC-CA1 synapses in C57BL/6J mouse brain slices at 10 uM pretreated for 10 mins followed by high-frequency stimulation measured up to 60 mins; format: functional, tissue-based
[6] = Volume of distribution at steady state in cannulated Sprague-Dawley rat at 0.2 to 0.25 mg/kg, iv administered as cassette dose by LC-MS/MS analysis; format: ADME, organism-based; settings: in vivo, read-out: Vdss
[7] = Clearance in cannulated Sprague-Dawley rat at 0.2 to 0.25 mg/kg, iv administered as cassette dose by LC-MS/MS analysis; format: ADME, organism-based; settings: in vivo
[8] = Half life in cannulated Sprague-Dawley rat at 0.2 to 0.25 mg/kg, iv administered as cassette dose by LC-MS/MS analysis; format: ADME, organism-based; settings: in vivo
[9] = Oral bioavailability in cannulated Sprague-Dawley rat; format: ADME, organism-based; settings: in vivo
[10] = Drug metabolism in rat hepatic S9 fraction assessed as amide hydrolysis after 60 mins in presence of NADPH/UDPGA/PAPS by LC/MS analysis; format: ADME, subcellular, Liver; settings: s9, 1 h
[11] = Brain to plasma partition coefficient, Kp of the compound in C57/Bl6 mouse at 10 mg/kg, ip measured after 0.5 hrs by LC-MS/MS analysis; format: ADME, organism-based; settings: brain and plasma
[12] = Unbound brain to plasma concentration ratio in C57/Bl6 mouse at 10 mg/kg, ip measured after 0.5 hrs by LC-MS/MS analysis; format: ADME, organism-based; settings: brain and plasma, read-out: K(p,uu,brain)
[13] = Drug level in C57/Bl6 mouse brain at 10 mg/kg, ip by LC-MS/MS analysis; format: ADME, organism-based; settings: in vivo, read-out: Drug uptake
[14] = Unbound drug level in C57/Bl6 mouse brain assessed as unbound fraction at 10 mg/kg, ip by LC-MS/MS analysis; format: ADME, organism-based; settings: in vivo
[15] = Drug level in C57/Bl6 mouse plasma at 10 mg/kg, ip by LC-MS/MS analysis; format: ADME, organism-based; settings: in vivo
[16] = Drug level in C57/Bl6 mouse plasma at 30 mg/kg, ip by LC-MS/MS analysis; format: ADME, organism-based; settings: in vivo
[17] = Unbound drug level in C57/Bl6 mouse plasma at 10 mg/kg, ip by LC-MS/MS analysis; format: ADME, organism-based; settings: in vivo
[18] = Unbound drug level in C57/Bl6 mouse plasma assessed as unbound fraction at 30 mg/kg, ip by LC-MS/MS analysis; format: ADME, organism-based; settings: in vivo
[19] = Unbound drug level in C57/Bl6 mouse plasma assessed as unbound fraction at 100 mg/kg, ip by LC-MS/MS analysis; format: ADME, organism-based; settings: in vivo
[20] = Drug level in C57/Bl6 mouse brain at 30 mg/kg, ip by LC-MS/MS analysis; format: ADME, organism-based; settings: in vivo, read-out: Drug uptake
[21] = Drug level in C57/Bl6 mouse brain at 100 mg/kg, ip by LC-MS/MS analysis; format: ADME, organism-based; settings: in vivo, read-out: Drug uptake
[22] = Unbound drug level in C57/Bl6 mouse brain assessed as unbound fraction at 30 mg/kg, ip by LC-MS/MS analysis; format: ADME, organism-based; settings: in vivo
[23] = Unbound drug level in C57/Bl6 mouse brain assessed as unbound fraction at 100 mg/kg, ip by LC-MS/MS analysis; format: ADME, organism-based; settings: in vivo
[24] = Brain to plasma partition coefficient, Kp of the compound in C57/Bl6 mouse at 30 mg/kg, ip measured after 0.5 hrs by LC-MS/MS analysis; format: ADME, organism-based; settings: brain and plasma
[25] = Brain to plasma partition coefficient, Kp of the compound in C57/Bl6 mouse at 100 mg/kg, ip measured after 0.5 hrs by LC-MS/MS analysis; format: ADME, organism-based; settings: brain and plasma
[26] = Unbound brain to plasma concentration ratio in C57/Bl6 mouse at 30 mg/kg, ip measured after 0.5 hrs by LC-MS/MS analysis; format: ADME, organism-based; settings: brain and plasma, read-out: K(p,uu,brain)
[27] = Unbound brain to plasma concentration ratio in C57/Bl6 mouse at 100 mg/kg, ip measured after 0.5 hrs by LC-MS/MS analysis; format: ADME, organism-based; settings: brain and plasma, read-out: K(p,uu,brain)
Mus musculus = assay: Toxicity in C57/Bl6 mouse at 100 mg/kg, ip; format: organism-based; settings: in vivo
[28] = target: T1, Metabotropic glutamate receptor 1 (Homo sapiens, UniProt Q13255); assay: Agonist activity at mGlu1 receptor (unknown origin); format: functional
[29] = target: T2, Metabotropic glutamate receptor 2 (Homo sapiens, UniProt Q14416); assay: Agonist activity at mGlu2 receptor (unknown origin); format: functional
[30] = target: T3, Metabotropic glutamate receptor 3 (Homo sapiens, UniProt Q14832); assay: Agonist activity at mGlu3 receptor (unknown origin); format: functional
[31] = target: T4, Metabotropic glutamate receptor 4 (Homo sapiens, UniProt Q14833); assay: Agonist activity at human mGlu4 expressed in CHO cells co-expressing Gqi5 after 142 secs by Fluo-4AM dye based calcium flux assay; format: functional, cell-based
[32] = target: T5, Metabotropic glutamate receptor 5 (Homo sapiens, UniProt P41594); assay: Agonist activity at mGlu5 receptor (unknown origin); format: functional
[33] = target: T6, Metabotropic glutamate receptor 6 (Homo sapiens, UniProt O15303); assay: Agonist activity at mGlu6 receptor (unknown origin); format: functional
[34] = target: T7, Metabotropic glutamate receptor 8 (Rattus norvegicus, UniProt P70579); assay: Agonist activity at rat mGlu8 expressed in HEK cells co-expressing Galpha15 measured after 142 secs by Fluo-4 AM dye based calcium flux assay; format: functional, cell-based
[35] = target: T1, Metabotropic glutamate receptor 1; assay: Antagonist activity at mGlu1 receptor (unknown origin); format: functional
[36] = target: T2, Metabotropic glutamate receptor 2; assay: Antagonist activity at mGlu2 receptor (unknown origin); format: functional
[37] = target: T3, Metabotropic glutamate receptor 3; assay: Antagonist activity at mGlu3 receptor (unknown origin); format: functional
[38] = target: T4, Metabotropic glutamate receptor 4; assay: Antagonist activity at human mGlu4 expressed in CHO cells co-expressing Gqi5 assessed as reduction in L-AP4-induced intracellular calcium flux pretreated for 142 secs followed by glutamate addition and subsequent stimulation of L-AP4 for 40 secs by Fluo-4 AM dye based fluorescence assay; format: functional, cell-based
[39] = target: T5, Metabotropic glutamate receptor 5; assay: Antagonist activity at mGlu5 receptor (unknown origin); format: functional
[40] = target: T6, Metabotropic glutamate receptor 6; assay: Antagonist activity at mGlu6 receptor (unknown origin); format: functional
[41] = target: T7, Metabotropic glutamate receptor 8; assay: Antagonist activity at rat mGlu8 expressed in HEK cells co-expressing Galpha15 assessed as reduction in L-AP4-induced intracellular calcium flux pretreated for 142 secs followed by glutamate addition and subsequent stimulation of L-AP4 for 40 secs by Fluo-4 AM dye based fluorescence assay; format: functional, cell-based
[42] = target: Metabotropic glutamate receptor 7 (Rattus norvegicus, UniProt P35400); assay: Negative allosteric modulation of rat mGlu7 expressed in HEK cells co-expressing Galpha15 assessed as reduction in L-AP4-induced intracellular calcium flux pretreated for 142 secs followed by glutamate addition and subsequent stimulation of L-AP4 for 40 secs by Fluo-4 AM dye based fluorescence assay; format: functional, cell-based
Metabotropic glutamate receptor 7, sequence (P35400 whole entry): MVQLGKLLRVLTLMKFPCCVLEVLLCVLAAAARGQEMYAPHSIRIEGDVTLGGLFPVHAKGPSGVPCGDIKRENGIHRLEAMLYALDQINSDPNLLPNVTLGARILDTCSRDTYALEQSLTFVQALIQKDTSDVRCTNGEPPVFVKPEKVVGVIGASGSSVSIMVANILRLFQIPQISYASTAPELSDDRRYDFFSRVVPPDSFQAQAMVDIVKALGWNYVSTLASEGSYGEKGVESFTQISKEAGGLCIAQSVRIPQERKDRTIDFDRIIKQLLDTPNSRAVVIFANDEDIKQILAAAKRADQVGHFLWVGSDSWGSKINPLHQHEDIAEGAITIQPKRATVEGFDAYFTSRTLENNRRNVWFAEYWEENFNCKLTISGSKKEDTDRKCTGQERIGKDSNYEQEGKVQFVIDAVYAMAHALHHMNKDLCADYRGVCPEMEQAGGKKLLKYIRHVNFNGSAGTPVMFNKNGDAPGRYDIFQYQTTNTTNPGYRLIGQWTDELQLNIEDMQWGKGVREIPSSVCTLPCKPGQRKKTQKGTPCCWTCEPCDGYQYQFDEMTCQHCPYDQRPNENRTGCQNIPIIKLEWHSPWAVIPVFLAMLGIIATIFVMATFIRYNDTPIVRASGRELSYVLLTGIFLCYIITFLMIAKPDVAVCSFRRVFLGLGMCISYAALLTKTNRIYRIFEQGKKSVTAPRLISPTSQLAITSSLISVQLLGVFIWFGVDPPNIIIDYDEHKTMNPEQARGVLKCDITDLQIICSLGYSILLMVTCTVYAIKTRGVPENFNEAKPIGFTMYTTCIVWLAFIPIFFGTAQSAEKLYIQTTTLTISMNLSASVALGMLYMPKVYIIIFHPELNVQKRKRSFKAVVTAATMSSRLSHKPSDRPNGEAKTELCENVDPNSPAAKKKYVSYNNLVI

T4 sequence (Q14833 whole entry): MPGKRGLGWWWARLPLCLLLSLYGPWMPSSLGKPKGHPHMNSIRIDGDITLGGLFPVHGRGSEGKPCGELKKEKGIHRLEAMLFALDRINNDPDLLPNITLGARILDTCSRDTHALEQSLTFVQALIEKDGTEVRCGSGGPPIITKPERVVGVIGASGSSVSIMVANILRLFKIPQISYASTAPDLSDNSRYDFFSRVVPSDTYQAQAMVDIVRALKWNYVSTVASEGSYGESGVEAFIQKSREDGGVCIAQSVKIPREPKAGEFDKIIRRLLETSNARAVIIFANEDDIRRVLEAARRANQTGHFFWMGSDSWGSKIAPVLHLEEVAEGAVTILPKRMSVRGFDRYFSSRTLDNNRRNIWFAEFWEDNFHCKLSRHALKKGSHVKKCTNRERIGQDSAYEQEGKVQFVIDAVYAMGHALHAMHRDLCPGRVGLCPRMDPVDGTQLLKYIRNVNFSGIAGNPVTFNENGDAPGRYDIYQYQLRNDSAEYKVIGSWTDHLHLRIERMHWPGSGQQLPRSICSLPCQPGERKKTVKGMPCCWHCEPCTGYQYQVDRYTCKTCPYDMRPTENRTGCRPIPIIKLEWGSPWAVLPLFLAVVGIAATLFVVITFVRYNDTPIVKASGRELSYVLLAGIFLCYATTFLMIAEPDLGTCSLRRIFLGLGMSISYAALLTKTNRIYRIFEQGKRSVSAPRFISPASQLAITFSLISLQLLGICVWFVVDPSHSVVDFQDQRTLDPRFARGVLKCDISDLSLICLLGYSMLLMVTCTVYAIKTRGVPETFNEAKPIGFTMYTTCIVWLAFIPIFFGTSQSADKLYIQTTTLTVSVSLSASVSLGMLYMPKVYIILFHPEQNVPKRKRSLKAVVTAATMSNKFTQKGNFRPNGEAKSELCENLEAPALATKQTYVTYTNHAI
T7 sequence (P70579 whole entry): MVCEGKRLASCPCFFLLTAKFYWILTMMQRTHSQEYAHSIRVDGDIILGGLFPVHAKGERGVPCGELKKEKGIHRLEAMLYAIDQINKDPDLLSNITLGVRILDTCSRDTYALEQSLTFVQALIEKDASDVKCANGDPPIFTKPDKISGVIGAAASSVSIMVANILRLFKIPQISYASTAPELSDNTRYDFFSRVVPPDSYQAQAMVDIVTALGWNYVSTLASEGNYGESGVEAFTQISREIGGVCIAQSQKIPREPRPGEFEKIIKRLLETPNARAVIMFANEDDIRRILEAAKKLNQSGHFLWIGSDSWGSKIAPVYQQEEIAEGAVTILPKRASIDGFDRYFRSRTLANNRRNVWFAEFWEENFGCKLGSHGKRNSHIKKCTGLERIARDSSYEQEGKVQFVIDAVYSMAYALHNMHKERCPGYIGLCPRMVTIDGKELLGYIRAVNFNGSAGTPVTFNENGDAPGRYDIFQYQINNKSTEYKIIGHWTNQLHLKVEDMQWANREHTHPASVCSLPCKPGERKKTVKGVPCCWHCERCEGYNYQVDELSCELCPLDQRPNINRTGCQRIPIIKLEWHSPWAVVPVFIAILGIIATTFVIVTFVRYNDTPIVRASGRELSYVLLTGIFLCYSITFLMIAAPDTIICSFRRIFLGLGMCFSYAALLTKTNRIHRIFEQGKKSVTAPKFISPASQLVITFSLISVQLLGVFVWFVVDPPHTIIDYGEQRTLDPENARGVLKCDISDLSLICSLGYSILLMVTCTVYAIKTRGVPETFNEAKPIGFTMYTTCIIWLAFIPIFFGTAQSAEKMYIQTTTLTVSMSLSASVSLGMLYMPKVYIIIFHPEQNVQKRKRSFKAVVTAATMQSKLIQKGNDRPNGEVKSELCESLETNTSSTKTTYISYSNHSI
T5 sequence (P41594 whole entry): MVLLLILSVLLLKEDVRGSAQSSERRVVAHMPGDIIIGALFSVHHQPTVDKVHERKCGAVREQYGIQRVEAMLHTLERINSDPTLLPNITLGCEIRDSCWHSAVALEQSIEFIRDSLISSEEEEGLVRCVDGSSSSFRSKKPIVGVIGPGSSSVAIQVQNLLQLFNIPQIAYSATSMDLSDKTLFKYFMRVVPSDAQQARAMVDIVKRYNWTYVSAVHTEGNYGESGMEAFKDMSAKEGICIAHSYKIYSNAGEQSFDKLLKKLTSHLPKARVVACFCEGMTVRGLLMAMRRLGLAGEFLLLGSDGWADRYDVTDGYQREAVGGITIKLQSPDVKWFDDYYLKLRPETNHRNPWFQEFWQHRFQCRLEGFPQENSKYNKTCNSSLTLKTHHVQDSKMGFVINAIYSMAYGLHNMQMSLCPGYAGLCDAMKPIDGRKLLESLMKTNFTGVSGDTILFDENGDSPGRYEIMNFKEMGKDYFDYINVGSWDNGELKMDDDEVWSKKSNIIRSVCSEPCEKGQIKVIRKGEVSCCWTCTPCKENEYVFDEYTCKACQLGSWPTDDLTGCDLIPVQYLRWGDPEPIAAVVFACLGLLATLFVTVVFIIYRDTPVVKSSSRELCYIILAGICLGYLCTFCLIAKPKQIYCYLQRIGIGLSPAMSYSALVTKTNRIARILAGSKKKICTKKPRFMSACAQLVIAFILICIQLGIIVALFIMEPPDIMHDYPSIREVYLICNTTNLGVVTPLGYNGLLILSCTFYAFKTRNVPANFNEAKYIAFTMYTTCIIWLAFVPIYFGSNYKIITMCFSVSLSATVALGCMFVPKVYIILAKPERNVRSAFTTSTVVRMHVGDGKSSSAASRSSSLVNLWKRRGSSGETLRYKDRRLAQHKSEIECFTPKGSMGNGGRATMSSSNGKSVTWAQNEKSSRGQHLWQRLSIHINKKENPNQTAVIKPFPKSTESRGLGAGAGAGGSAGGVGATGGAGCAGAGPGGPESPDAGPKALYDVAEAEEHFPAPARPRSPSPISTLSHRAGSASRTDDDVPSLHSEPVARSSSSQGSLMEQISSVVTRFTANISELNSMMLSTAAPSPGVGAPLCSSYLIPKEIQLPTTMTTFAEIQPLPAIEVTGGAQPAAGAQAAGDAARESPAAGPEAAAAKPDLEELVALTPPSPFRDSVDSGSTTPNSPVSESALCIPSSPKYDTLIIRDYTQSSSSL
T6 sequence (O15303 whole entry): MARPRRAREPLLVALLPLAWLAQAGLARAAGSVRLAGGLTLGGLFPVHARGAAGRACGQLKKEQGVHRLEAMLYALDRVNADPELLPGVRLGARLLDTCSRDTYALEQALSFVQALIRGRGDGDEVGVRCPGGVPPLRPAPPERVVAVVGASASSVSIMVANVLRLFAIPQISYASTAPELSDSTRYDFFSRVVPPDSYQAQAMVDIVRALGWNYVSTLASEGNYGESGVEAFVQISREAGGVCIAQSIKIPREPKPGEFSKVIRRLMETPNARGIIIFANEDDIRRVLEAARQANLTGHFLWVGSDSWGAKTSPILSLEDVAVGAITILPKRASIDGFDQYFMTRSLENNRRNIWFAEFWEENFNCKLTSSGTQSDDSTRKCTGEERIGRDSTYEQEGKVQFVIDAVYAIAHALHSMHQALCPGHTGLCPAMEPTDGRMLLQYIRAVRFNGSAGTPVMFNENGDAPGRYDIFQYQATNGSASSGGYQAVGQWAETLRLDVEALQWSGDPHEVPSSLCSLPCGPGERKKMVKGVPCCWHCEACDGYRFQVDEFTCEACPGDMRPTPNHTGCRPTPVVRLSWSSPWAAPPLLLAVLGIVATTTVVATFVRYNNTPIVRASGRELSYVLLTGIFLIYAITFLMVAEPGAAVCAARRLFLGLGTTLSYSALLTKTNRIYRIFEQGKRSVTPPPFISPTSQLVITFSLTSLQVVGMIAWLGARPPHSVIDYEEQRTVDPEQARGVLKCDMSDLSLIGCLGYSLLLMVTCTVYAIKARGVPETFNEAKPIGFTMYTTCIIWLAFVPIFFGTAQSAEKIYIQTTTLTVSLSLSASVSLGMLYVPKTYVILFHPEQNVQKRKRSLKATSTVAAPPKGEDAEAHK

## CCCOc1ccc(C(=O)Nc2cc(OC(F)(F)F)ccc2-n2cncn2)cc1OC
[1]
  Kp at 0.25 h: 1.9
[2]
  Kp uu at 0.25 h: 1
[3]
  fraction unbound at 4 h: 0.017
[4]
  fraction unbound at 4 h: 0.019
[5]
  fraction unbound at 6 h: 0.009

## COc1ccc(C(=O)Nc2cc(OC(F)(F)F)ccc2-n2cncn2)cc1OC
Brain
  Activity: Active
[6]
  Vd: 6.2 L/kg
[1]
  Kp at 0.25 h: 3.4
[2]
  Kp uu at 0.25 h: 0.48
[3]; 4 h
  Fu: 0.244
[4]
  fraction unbound at 4 h: 0.178
[5]
  fraction unbound at 6 h: 0.034
[7]
  clearance: 64.2 mL/min/kg
[8]
  half-life: 1.73 h
[9]
  bioavailability: 18.9%
[10]
  Drug metabolism: Metabolite_Detected
[11]
  Kp at 0.5 h: 2.01
[12]
  Kp uu at 0.5 h: 0.44
[13]
  concentration: 380 nM
[14]
  Drug uptake(free): 14.3 nM
[15]
  concentration: 180 nM
[16]
  concentration: 402 nM
[17]
  Cp(f): 32.5 nM
[18]
  Cp(f): 71.5 nM
[19]
  Cp(f): 137 nM
[20]
  concentration: 952 nM
[21]
  concentration: 1550 nM
[22]
  Drug uptake(free): 36.2 nM
[23]
  Drug uptake(free): 59 nM
[24]
  Kp at 0.5 h: 2.36
[25]
  Kp at 0.5 h: 2
[26]
  Kp uu at 0.5 h: 0.51
[27]
  Kp uu at 0.5 h: 0.43
Mus musculus
  Activity: Non-Toxic
[28]
  EC50: > 10 µM
[29]
  EC50: > 10 µM
[30]
  EC50: > 10 µM
[31]
  EC50: > 10 µM
[32]
  EC50: > 10 µM
[33]
  EC50: > 10 µM
[34]
  EC50: > 10 µM
[35]
  IC50: > 10 µM
[36]
  IC50: > 10 µM
[37]
  IC50: > 10 µM
[38]
  IC50: > 10 µM
[39]
  IC50: > 10 µM
[40]
  IC50: > 10 µM
[41]
  IC50: > 10 µM

## COc1cc(C(=O)Nc2cc(OC(F)(F)F)ccc2-n2cncn2)ccc1OC(C)C
[1]
  Kp at 0.25 h: 4.4
[2]
  Kp uu at 0.25 h: 0.89
[3]
  fraction unbound at 4 h: 0.065
[4]
  fraction unbound at 4 h: 0.063
[5]
  fraction unbound at 6 h: 0.013

## COc1ccc(C(=O)Nc2cc(Cl)ccc2-n2cncn2)cc1OC
[42]
  IC50: 5.8 µM
[38]
  IC50: > 30 µM
[41]
  IC50: > 30 µM

## CCc1nc2c(o1)CC(c1ccc(C)cc1C)CC2=O (stereo not given)
[42]
  IC50: 0.676 µM
Mus musculus
  Activity: Non-Toxic

## COc1cc(C(=O)Nc2cc(OC(F)(F)F)ccc2-n2cncn2)ccc1OC1CC1
[42]
  IC50: 0.71 µM
[1]
  Kp at 0.25 h: 5.8
[2]
  Kp uu at 0.25 h: 1.5
[3]
  fraction unbound at 4 h: 0.052
[4]
  fraction unbound at 4 h: 0.039
[5]
  fraction unbound at 6 h: 0.013

## CCOc1ccc(C(=O)Nc2cc(OC(F)(F)F)ccc2-n2cncn2)cc1OC
[1]
  Kp at 0.25 h: 3.5
[2]
  Kp uu at 0.25 h: 0.83
[3]
  fraction unbound at 4 h: 0.072
[4]
  fraction unbound at 4 h: 0.086
[5]
  fraction unbound at 6 h: 0.017

## COc1cc(C(=O)Nc2cc(OC(F)(F)F)ccc2-n2cncn2)ccc1OC1CCCC1
[42]
  IC50: 1.4 µM
